In ChEMBL document CHEMBL5729117, “Heteroaryl Rheb inhibitors and uses thereof” (2022):

What follows are molecules tested against GTP-binding protein Rheb (Homo sapiens, UniProt Q15382) (assay: In Vitro Kinase Assay: For the Rheb-dependent in vitro kinase assay, HA-GST-Rheb was first loaded with GTP-γ-S (Millipore #20-176) by incubating 600 ng/μL Rheb with 10 mM EDTA and 0.4 mM GTP-γ-S at 30° C. for 10 minutes. MgCl2 was added to a final concentration of 20 mM to stop the reaction. This mixture was used at 20× in the kinase assay.Loaded HA-GST-Rheb was then incubated with compound (final DMSO concentration 1%) for 30 minutes at room temperature. mTORC1, GFP-4E-BP1 substrate (Life Technologies #PV4759), and kinase assay buffer (HEPES pH 7.4, KCl, MgCl2) were added to the Rheb-compound mixture and incubated at room temperature for 20 minutes. ATP was then added, and the kinase reaction proceeded at 30° C. for 45 min before being stopped by the addition of SDS-PAGE loading buffer for Westerns or 10 mM EDTA for the LanthaScreen readout. During the kinase reaction, the final concentration of reagents is as follows: Rheb—30 ng/μL, compound—variable, GTPγS—0.02 mM, EDTA—0.5 mM, MgCl2—1 mM, mTORC1—fixed volume of prep (molarity unknown), GFP-4E-BP1 substrate—15 ng/μL, ATP—0.5 mM. For LanthaScreen analysis (Thermo Fisher #PV4757), the manufacturer's instructions were followed and conditions were optimized for the amount of Rheb and mTORC1. The final concentration of reagents was as follows: 100 nM loaded HA-GST-Rheb, compound (variable), 0.5 mM EDTA, 10 mM MgCl2, 25 mM HEPES pH 7.4, 50 mM KCl, mTORC1 (fixed volume—0.1 μL in 10 μL total volume), 0.4 μM GFP-4E-BP1 substrate, 0.5 mM ATP. Results were read on an EnVision reader (PerkinElmer) using 495ex/520em filters (Life Technologies, #PV00315).).
GTP-binding protein Rheb, sequence (Q15382 whole entry): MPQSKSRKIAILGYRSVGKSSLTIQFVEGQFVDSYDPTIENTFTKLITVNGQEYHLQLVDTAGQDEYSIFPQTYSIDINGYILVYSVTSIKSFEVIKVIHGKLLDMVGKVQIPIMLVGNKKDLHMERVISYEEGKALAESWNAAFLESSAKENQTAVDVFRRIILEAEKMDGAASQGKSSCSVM

IC50, < 10 µM:
Cc1cc(C(C)(C)C)ccc1Sc1cc(Cl)cc2[nH]c(CO)cc12
CN1CCCN(c2ccc(NC(=O)c3cc4c(-c5cc(Cl)cc(Cl)c5)cc(Cl)cc4[nH]3)cc2F)CC1
Cc1cc(C(C)(C)C)ccc1Sc1cc(Cl)cc2[nH]c(C(=O)O)cc12
OCc1cc2c(Sc3ccc(Cl)cc3Cl)cc(Cl)cc2[nH]1
O=C(O)c1cc2c(Sc3ccc(C(F)(F)F)cc3)cc(Cl)cc2[nH]1
